These results are taken from ChEMBL document CHEMBL3045947, “Identification of Novel Non-nucleoside Reverse Transcriptase Inhibitors Using Fragment-based Lead Generation” (Med Chem Res, 2005).

Data set [1] deals with Human immunodeficiency virus 1. The data set is described as follows: Antiviral activity against Human immunodeficiency virus 1 IIIB infected human MT4 cells assessed as inhibition of virus-induced cytopathic effect after 7 days by MTT assay. In kind it is functional, organism-based. Particulars: MT4, 168 h. On the technique in general: Protection from cytopathic effect is a common read-out in antiviral testing.

A short description of data set [2]: Cytotoxicity against Homo sapiens (human) MT4 cells after 5 days by MTT assay. In kind it is cell-based. Background: Tetrazolium assays rely on reduction of a dye to a coloured formazan, in cell work by metabolically active cells.
Data set [3] in a line: Selectivity index, ratio of CC50 for human MT4 cells to EC50 for HIV13B. It counts as toxicity, cell-based. The conditions noted are these: read-out: Ratio CC50/EC50.

The term EC50 denotes the concentration needed to bring the measured effect to its halfway point. What is called CC50 is the concentration that lowers cell viability or growth by half. High values mean better tolerance by the cells, low ones harm at low concentration.

In the case of `Nc1nc(-c2ccccc2)cc(-c2ccccc2O)n1`, the EC50 in data set [1] worked out at 3.22 µM. The midpoint of cytotoxicity in data set [2], the CC50 at 120 h, lay at 31.3 µM. In addition, the selectivity ratio in data set [3] was found to be 10.

`Cc1ccc(-c2cc(-c3ccccc3O)nc(N)n2)cc1`: the concentration giving a half-maximal response (EC50) in data set [1] is greater than 125 µM. The CC50 at 120 h in data set [2] was greater than 128 µM.

Regarding `Nc1nc(-c2ccc(F)cc2)cc(-c2ccccc2O)n1`, the EC50 in data set [1] was greater than 67.5 µM. The same molecule had a half-maximal cytotoxic concentration (CC50) at 120 h in data set [2] of 67.5 µM.

For the molecule `COc1ccc(-c2cc(-c3ccccc3O)nc(N)n2)cc1`, the half-maximal effective concentration (EC50) in data set [1] is greater than 92.2 µM. In addition, the CC50 at 120 h in data set [2] was determined as 92.2 µM.

Take `Nc1nc(-c2ccc(Cl)cc2)cc(-c2ccccc2O)n1`: in data set [1], the EC50 was greater than 74.7 µM. Moreover, the half-maximal cytotoxic concentration (CC50) at 120 h in data set [2] was greater than 74.7 µM.

For the molecule `Cc1cccc(-c2cc(-c3ccccc3O)nc(N)n2)c1`, in data set [1], the concentration for a half-maximal effect (EC50) was 3.45 µM. The molecule also registered a half-maximal cytotoxic concentration (CC50) at 120 h in data set [2] of 13 µM. Also, the selectivity ratio in data set [3] was found to be 4.

`COc1cccc(-c2cc(-c3ccccc3O)nc(N)n2)c1`: in data set [1], the EC50 is greater than 78.3 µM. Further, the CC50 at 120 h in data set [2] is greater than 78.3 µM.

`Nc1nc(-c2cccc(Cl)c2)cc(-c2ccccc2O)n1`: the EC50 in data set [1] was greater than 125 µM. The same molecule came in with a cytotoxic concentration (CC50) at 120 h in data set [2] greater than 125 µM.

Turning to `COc1ccc(-c2cc(-c3ccccc3O)nc(N)n2)cc1OC`, in data set [1], the half-maximal effective concentration (EC50) is greater than 7.36 µM. In data set [2], the midpoint of cytotoxicity, the CC50 at 120 h, lay at 7.36 µM.

Regarding `Nc1nc(-c2ccco2)cc(-c2ccccc2O)n1`, in data set [1], the EC50 was greater than 125 µM. The CC50 at 120 h in data set [2] is greater than 125 µM.

With `Nc1nc(-c2cccs2)cc(-c2ccccc2O)n1`, the EC50 in data set [1] is 5.59 µM. Also, in data set [2], half-maximal cytotoxicity (CC50 at 120 h) was put at 5.3 µM.
